{"source": "PubChem BioAssay (NCI)", "assay_in_all_cases": "inhibition of tumour cell growth, NCI panel, 48 h", "key": {"[1]": {"tested_on": "786-0 renal"}, "[2]": {"tested_on": "A498 renal"}, "[3]": {"tested_on": "A549 NSCLC"}, "[4]": {"tested_on": "ACHN renal"}, "[5]": {"tested_on": "BT-549 breast"}, "[6]": {"tested_on": "CAKI-1 renal"}, "[7]": {"tested_on": "CCRF-CEM leukemia"}, "[8]": {"tested_on": "COLO 205 colon"}, "[9]": {"tested_on": "DU-145 prostate"}, "[10]": {"tested_on": "EKVX NSCLC"}, "[11]": {"tested_on": "HCC-2998 colon"}, "[12]": {"tested_on": "HCT-116 colon"}, "[13]": {"tested_on": "HCT-15 colon"}, "[14]": {"tested_on": "HL-60(TB) leukemia"}, "[15]": {"tested_on": "HOP-62 NSCLC"}, "[16]": {"tested_on": "HOP-92 NSCLC"}, "[17]": {"tested_on": "HS 578T breast"}, "[18]": {"tested_on": "HT29 colon"}, "[19]": {"tested_on": "K-562 leukemia"}, "[20]": {"tested_on": "KM12 colon"}, "[21]": {"tested_on": "LOX IMVI melanoma"}, "[22]": {"tested_on": "M14 melanoma"}, "[23]": {"tested_on": "MALME-3M melanoma"}, "[24]": {"tested_on": "MCF7 breast"}, "[25]": {"tested_on": "MDA-MB-231 breast"}, "[26]": {"tested_on": "MDA-MB-435"}, "[27]": {"tested_on": "MDA-N"}, "[28]": {"tested_on": "MOLT-4 leukemia"}, "[29]": {"tested_on": "NCI-H226 lung"}, "[30]": {"tested_on": "NCI-H23 lung"}, "[31]": {"tested_on": "NCI-H460 lung"}, "[32]": {"tested_on": "NCI/ADR-RES ovarian"}, "[33]": {"tested_on": "OVCAR-3 ovarian"}, "[34]": {"tested_on": "OVCAR-4 ovarian"}, "[35]": {"tested_on": "OVCAR-5 ovarian"}, "[36]": {"tested_on": "OVCAR-8 ovarian"}, "[37]": {"tested_on": "PC-3 prostate"}, "[38]": {"tested_on": "RPMI-8226 leukemia"}, "[39]": {"tested_on": "SF-295 CNS"}, "[40]": {"tested_on": "SF-539 CNS"}, "[41]": {"tested_on": "SK-MEL-28 melanoma"}, "[42]": {"tested_on": "SK-MEL-5 melanoma"}, "[43]": {"tested_on": "SK-OV-3 ovarian"}, "[44]": {"tested_on": "SN12C renal"}, "[45]": {"tested_on": "SNB-19 CNS"}, "[46]": {"tested_on": "SR leukemia"}, "[47]": {"tested_on": "SW-620 colon"}, "[48]": {"tested_on": "T-47D breast"}, "[49]": {"tested_on": "TK-10 renal"}, "[50]": {"tested_on": "U251 CNS"}, "[51]": {"tested_on": "UACC-257 melanoma"}, "[52]": {"tested_on": "UACC-62 melanoma"}, "[53]": {"tested_on": "UO-31 renal"}}, "note": "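Briefly, cells in 96-well plates were exposed to five compound concentrations for 48 h, and endpoints were estimated by linear interpolation. TGI marks complete inhibition of growth.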", "data": [{"smiles": "COC(=O)C#Cc1cccc(OC)c1OC", "values": [{"measurement": "TGI", "setting": "[1]", "result": "> 100", "unit": "µM"}, {"measurement": "TGI", "setting": "[2]", "result": "> 100", "unit": "µM"}, {"measurement": "TGI", "setting": "[3]", "result": "> 100", "unit": "µM"}, {"measurement": "TGI", "setting": "[4]", "result": "> 100", "unit": "µM"}, {"measurement": "TGI", "setting": "[5]", "result": "> 100", "unit": "µM"}, {"measurement": "TGI", "setting": "[6]", "result": 68.3, "unit": "µM"}, {"measurement": "TGI", "setting": "[7]", "result": 67.9, "unit": "µM"}, {"measurement": "TGI", "setting": "[8]", "result": 65.7, "unit": "µM"}, {"measurement": "TGI", "setting": "[9]", "result": "> 100", "unit": "µM"}, {"measurement": "TGI", "setting": "[10]", "result": 54.4, "unit": "µM"}, {"measurement": "TGI", "setting": "[11]", "result": 48.2, "unit": "µM"}, {"measurement": "TGI", "setting": "[12]", "result": "> 100", "unit": "µM"}, {"measurement": "TGI", "setting": "[13]", "result": "> 100", "unit": "µM"}, {"measurement": "TGI", "setting": "[14]", "result": "> 100", "unit": "µM"}, {"measurement": "TGI", "setting": "[15]", "result": "> 100", "unit": "µM"}, {"measurement": "TGI", "setting": "[16]", "result": 66.1, "unit": "µM"}, {"measurement": "TGI", "setting": "[17]", "result": "> 100", "unit": "µM"}, {"measurement": "TGI", "setting": "[18]", "result": 79.2, "unit": "µM"}, {"measurement": "TGI", "setting": "[19]", "result": 55.1, "unit": "µM"}, {"measurement": "TGI", "setting": "[20]", "result": "> 100", "unit": "µM"}, {"measurement": "TGI", "setting": "[21]", "result": "> 100", "unit": "µM"}, {"measurement": "TGI", "setting": "[22]", "result": "> 100", "unit": "µM"}, {"measurement": "TGI", "setting": "[23]", "result": "> 100", "unit": "µM"}, {"measurement": "TGI", "setting": "[24]", "result": 55.6, "unit": "µM"}, {"measurement": "TGI", "setting": "[25]", "result": "> 100", "unit": "µM"}, {"measurement": "TGI", "setting": "[26]", "result": "> 100", "unit": "µM"}, {"measurement": "TGI", "setting": "[27]", "result": "> 100", "unit": "µM"}, {"measurement": "TGI", "setting": "[28]", "result": 35.4, "unit": "µM"}, {"measurement": "TGI", "setting": "[29]", "result": "> 100", "unit": "µM"}, {"measurement": "TGI", "setting": "[30]", "result": "> 100", "unit": "µM"}, {"measurement": "TGI", "setting": "[31]", "result": "> 100", "unit": "µM"}, {"measurement": "TGI", "setting": "[32]", "result": 99, "unit": "µM"}, {"measurement": "TGI", "setting": "[33]", "result": "> 100", "unit": "µM"}, {"measurement": "TGI", "setting": "[34]", "result": 36.2, "unit": "µM"}, {"measurement": "TGI", "setting": "[35]", "result": 51.3, "unit": "µM"}, {"measurement": "TGI", "setting": "[36]", "result": "> 100", "unit": "µM"}, {"measurement": "TGI", "setting": "[37]", "result": "> 100", "unit": "µM"}, {"measurement": "TGI", "setting": "[38]", "result": "> 100", "unit": "µM"}, {"measurement": "TGI", "setting": "[39]", "result": "> 100", "unit": "µM"}, {"measurement": "TGI", "setting": "[40]", "result": 46.4, "unit": "µM"}, {"measurement": "TGI", "setting": "[41]", "result": "> 100", "unit": "µM"}, {"measurement": "TGI", "setting": "[42]", "result": "> 100", "unit": "µM"}, {"measurement": "TGI", "setting": "[43]", "result": "> 100", "unit": "µM"}, {"measurement": "TGI", "setting": "[44]", "result": "> 100", "unit": "µM"}, {"measurement": "TGI", "setting": "[45]", "result": "> 100", "unit": "µM"}, {"measurement": "TGI", "setting": "[46]", "result": 44.8, "unit": "µM"}, {"measurement": "TGI", "setting": "[47]", "result": "> 100", "unit": "µM"}, {"measurement": "TGI", "setting": "[48]", "result": "> 100", "unit": "µM"}, {"measurement": "TGI", "setting": "[49]", "result": "> 100", "unit": "µM"}, {"measurement": "TGI", "setting": "[50]", "result": "> 100", "unit": "µM"}, {"measurement": "TGI", "setting": "[51]", "result": "> 100", "unit": "µM"}, {"measurement": "TGI", "setting": "[52]", "result": "> 100", "unit": "µM"}, {"measurement": "TGI", "setting": "[53]", "result": 37.9, "unit": "µM"}]}]}
